The test can be described thus: CaOx crystallization inhibition assay, remaining free oxalate in solution measured with EnzyChrom oxalate assay kit (Assay B). The test is classed as biochemical. The note with it: for pEC50 / Ratio: from EC50 in the CaOx crystallization inhibition assay; for pEC50: HEPES pH 6.8, r.t., footnote c not given; for pEC50 / EC50: 72 h; for EC50: inhibition of CaOx crystallization, 10 mM HEPES buffer, pH 6.8, 150 mM NaCl, supersaturated CaOx, r.t., remaining oxalate at OD 595 nm; for Ratio: ratio to citrate (citrate = 1). The text has this: Calcium oxalate (CaOx) crystallization inhibition assays in HEPES buffer, pH 6.8 include Assay A and Assay B. Assay A: Fluorescence-based assay using Quin-2 to measure the concentration of free calcium in solution (Ex 340 nm/Em 495 nm) (FIG. 1). An example assay protocol is shown below.
Assay B: Spectrophotometric assay using EnzyChrom™ oxalate assay kit from Bioassay Systems (EOXA-100) to measure the concentration of free oxalate in solution at OD 595 nm.
For CaOx crystallization inhibition assay, equal volumes of 2 mM of CaCl2) was combined with […] of Na2Ox to generate […] supersaturated solutions of CaOx in 10 mM HEPES buffer, pH 6.8 containing 150 mM NaCl. The higher concentration of Ca^++ utilized in this assay was designed to mimic the typical calcium levels found in human urine. Following incubation with varying concentrations of inhibitors at r.t. for 72 h and subsequent centrifugation, the EnzyChrom™ oxalate assay kit (EOXA-100, BioAssay Systems) was employed to measure spectrophotometrically the remaining oxalate concentration in solution at 595 nm. This assay determined the EC50 for each inhibitor. This assay was used to determine the activity of about 50 oxamate derivatives synthesized. Separately, dose response curves can be obtained for calcium concentrations and inhibitors concentrations with supersaturated solution: 250 μM CaCl2+250 μM Na2C2O4 in 10 mM HEPES, pH 6.8+150 mM NaCl; Calcium concentration in supernatent after centrifuge was measured using Quin2 via a fluorescence assay (Ex 340 nm/Em 495 nm).
Table 1 lists the EC50's obtained using this assay for various oxamate derivatives, along with other structure features such as linker length and number of OMA units for SAR analysis.

SMILES strings stand for the structures.

Usually pEC50 stands for −log10 of the EC50, conventionally taken in molar units. The EC50 is the concentration at which the effect is half-maximal. Read a low EC50 as higher potency in that assay.

Turning to `O=C(O)CC(O)(CC(=O)O)C(=O)O` [Citrate, reference compound], the pEC50 worked out at 3.18, the response was half-maximal at 665 µM (EC50) and the Ratio is given as 1.

Turning to `O=C(O)C(=O)NCCCC[C@H](NC(=O)C(=O)O)C(=O)O` [Compound 9, L-Lysine N^α,N^ε-dioxalate], the pEC50 is 4.20, the EC50 was determined as 63.8 µM and the Ratio came out at 10.

As for `O=C(O)C(=O)NCCCC[C@H](NC(=O)C(=O)O)C(=O)NCCCCCCNC(=O)[C@H](CCCCNC(=O)C(=O)O)NC(=O)C(=O)O` [Compound 19f, N,N′-(1,6-hexylene)bis(L-Lysinamide) N^α, N^α′,N^ε,N^ε′-tetraoxalate], the pEC50 was 6.03, the half-maximal effective concentration (EC50) worked out at 0.925 µM and the Ratio was determined as 719.

Take `O=C(O)C(=O)NCCNC(=O)C(=O)O` [Compound 11b]: the pEC50 stood at 3.89, a half-maximal response (EC50) required 127 µM and the Ratio is on record as 5.

Consider `O=C(O)C(=O)NCCCC[C@H](NC(=O)C(=O)O)C(=O)NCCCCCNC(=O)[C@H](CCCCNC(=O)C(=O)O)NC(=O)C(=O)O` [Compound 19e, N,N′-(1,5-pentylene)bis(L-Lysinamide) N^α, N^α′,N^ε,N^ε′-tetraoxalate], for which the pEC50 is 5.44, the EC50 was found to be 3.6 µM and the Ratio turned out to be 185.

The record behind these values is patent US20260317269A1, “Oxamate Derivatives and Prodrugs to Prevent CaOx Stone Formation” (Rutgers, The State University of New Jersey, priority 2023, published 2026).
